Source: patent US20180000136A1, “BIOLOGICAL INORGANIC COMPOUND COMPLEX HAVING REDUCED OXYGEN AND HIGH REDUCING ABILITY” (priority 2011, published 2018)

Legend:
[1] = medication of Graves' disease; Non-patent documents 1 and 2; cited from earlier work
[2] = Degradation of H2O2 in a cell-free system (Amplex red); type: biochemical; conditions: 20 μM H2O2, 30 min at 37° C.
Experimental: Then, Amplex red (Invitrogen) is added and incubated for 30 min in a dark room. The absorbance at 560 nm is measured by a microplate reader (Molecular Devices, Sunnyvale, Calif.).

LPO-H2O2 reaction = LPO-H2O2 reaction (Bos taurus, UniProt P80025); test: Compound II formation from the peroxidase-H2O2 reaction (OD 430 nm); type: biochemical; conditions: KI at 1 μM
Source text: Compound II, however, is relatively stable and can be measured at OD of 430 nm. The compound II level is well maintained after mixing LPO and H2O2 (Referring to FIG. 28). […] Since the compound II is derived from the compound I, the inhibition of compound I is also understandable.

Compound	side-effects [1]	degradation of H2O2 [2]	compound II formation (LPO-H2O2 reaction)
CCCc1cc(=O)[nH]c(=S)[nH]1 [PTU, propylthiouracil]	severe liver damage		
Cn1cc[nH]c1=S [MMI, methimazole]	an allergic reaction, an increase of a variety of enzyme levels in liver, a joint pain and an agranulocytosis in case of a severe condition	can degrade H2O2 although higher concentration of MMI is required	
[I-].[K+] [KI]			partially inhibits
